Measured values taken from publication PMC4336331, “Novel Receptor-Derived Cyclopeptides to Treat Heart Failure Caused by Anti-β1-Adrenoceptor Antibodies in a Human-Analogous Rat Model” (PLoS ONE, 2015).
Like-named read-outs stand apart in the source and are kept apart here.

Tests used:
[1] = test system: anti-β1EC2-induced heart failure (β1EC2/GST-FP-immunised rats); settings: therapy-study, end of study, mean ±SEM
Protocol: (§1) In brief, n = 76 two months old Lewis/CrlBR rats were either s.c. immunised with 50 μg β1EC2/GST-FP, or n = 38 rats were control-injected with 0.9% NaCl (t = 0). To maintain high anti-β1EC2-titers, all immunised rats were boosted with β1EC2/GST-FP (or 0.9% NaCl) every month over 20 months as previously described. Application of the different linear or cyclic β1-AR peptides (corresponding to the primary AA-sequence of either the first (β1EC1) or the 2nd extra-cellular β1-AR loop (β1EC2)) or the β1-receptor blocker bisoprolol was initiated either 6 weeks after the 1st immunisation (i.e. 15 days after the 1st boost, prevention-study), or 8.5 months after the 1st immunisation (therapy-study).
From paraffin-embedded heart preparations cavity- and wall-dimensions were determined by computer-aided analysis of H&E-stained mid-ventricular 2μm-sections as previously described. H&E-stained paraffin-sections also served to quantify damaged and fibrotic cardiac areas (scars). For detection of mast cells, deparaffinised cardiac sections were stained with acidified (pH<2.5) toluidine blue 0.1% (Sigma). The number of toluidine-positive cells was normalized to square millimeter of cardiac tissue. TUNEL-positive cells were quantified in 2μm mid-ventricular paraffin-sections using a TMR Red in Situ Death Detection Kit (Roche, Basel, Switzerland). Only the total number of TUNEL-postive cells/section was determined without further differentiation of the specific apoptotic cell type (e.g., fibroblasts, endothelial cells, cardiomyocytes).

[2] = test system: anti-β1EC2-induced heart failure (β1EC2/GST-FP-immunised rats); experiment: Relative organ wet weights and body weight, therapy-study; settings: immunised anti-β1EC2-positive rats, from 8.5 months after 1st immunisation peptides 1.0 mg/kg i.v. every 4 weeks, bisoprolol 15 mg/kg/day orally, over 12 months, month 20, mean ±SEM
Protocol: as §1
After the hearts all other relevant inner organs (e.g., lung, liver, spleen, kidneys, brain, and eyes) were removed, rinsed with ice-cold PBS, weighed, sectioned, and fixed for further histologic analysis.

[3] = test system: anti-β1EC2-induced heart failure (β1EC2/GST-FP-immunised rats); experiment: Left heart catheterisation (haemodynamics), prevention-study; format: in vivo, Lewis/CrlBR rats; settings: LV catheterisation month 16, mean ±SEM
Protocol: as §1

[4] = test system: anti-β1EC2-induced heart failure (β1EC2/GST-FP-immunised rats); experiment: Echocardiography and catheterisation, cardiomyopathic phenotype, therapy-study; format: in vivo, Lewis/CrlBR rats; settings: echocardiography and catheterisation (Fig. 2G, H; S2 Fig.)
Protocol: as §1
In brief, the rats were lightly anaestetised (30 mg/kg ketamine-HCl and 5 mg/kg xylazine i.p.), shaved (chest), and placed supine on a special table. M-mode tracings were recorded at baseline (before immunisation), and subsequently every four months in the parasternal long and short axis views according to the guidelines of the American Society for Echocardiography. Pulsed-wave Doppler spectra were recorded from the apical five-chamber view and the velocity-time integral (VTI) of the transaortic flow served to calculate cardiac output (CO [ml/min] = Aortic VTI x (π [LV-outflow tract diameter/2]^2) x bpm).

[5] = test system: anti-β1EC2-induced heart failure (β1EC2/GST-FP-immunised rats); experiment: Left heart catheterisation (haemodynamics), therapy-study; format: in vivo, Lewis/CrlBR rats; settings: LV catheterisation month 20, mean ±SEM
Protocol: as §1

anti-β1EC2-antibodies = experiment: Free anti-β1EC2-titers by ELISA, therapy-study; format: in vivo, Lewis/CrlBR rats; settings: peptides 1.0 mg/kg/month i.v., bisoprolol 15 mg/kg/day orally (S1 Fig., Fig. 2F)
Protocol: as §1
(TIF) Click here for additional data file.

[6] = immunised anti-β1EC2-positive rats, from 8.5 months after 1st immunisation peptides 1.0 mg/kg i.v. every 4 weeks, bisoprolol 15 mg/kg/day orally, over 12 months
[7] = non-immunised 0.9% NaCl-injected rats, EC2-CP 1.0 mg/kg i.v. every 4 weeks or bisoprolol 15 mg/kg/day orally over 12 months
[8] = immunised anti-β1EC2-positive rats, from 6 weeks after 1st immunisation EC2-CP 1.0 mg/kg i.v. every 4 weeks or bisoprolol 15 mg/kg/day orally over 12 months

`CC(C)NCC(O)COc1ccc(COCCOC(C)C)cc1` (stereo not drawn) [bisoprolol, reference compound] was tested, and the “IVS (thickness of the inter-ventricular septum)” value [1, 6] was 1.7 ±0.1 mm, the “LVA (total LV-area)” value [1, 6] was 61.9 ±5.2 mm2 and the “LVCA (LV-cavity area)” value [1, 6] was 26.8 ±1.0 mm2. The “LVWA (LV wall area)” value [1, 6] was 35.0 ±4.5 mm2, the “PW (posterior wall thickness)” value [1, 6] was 1.5 ±0.1 mm and the “IVS (thickness of the inter-ventricular septum)” value [1, 7] was 1.8 ±0.1 mm. The “LVA (total LV-area)” value [1, 7] was 58.4 ±0.7 mm2, the “LVCA (LV-cavity area)” value [1, 7] was 22.6 ±0.2 mm2 and the “LVCA / LVA %” value [1, 7] was 38.7 ±0.5%. For the same molecule, the “LVWA (LV wall area)” value [1, 7] was 35.8 ±0.5 mm2, the “PW (posterior wall thickness)” value [1, 7] was 1.8 ±0.1 mm and the “Heart, relative (wet) weight” value [2] was 2.93 ± 0.11 mg/g. The “Liver, relative (wet) weight” value [2] was 21.61 ± 1.47 mg/g, the “Lung, relative (wet) weight” value [2] was 2.88 ± 0.10 mg/g and the “+dP/dt (contractilility)” value [3, 8] was 6768 ±106 mmHg/s. The “-dP/dt (relaxation)” value [3, 8] was 5532 ±78 mmHg/s, the “HF (heart frequence)” value [3, 8] was 178 ±9 bpm and the “LVEDP (LV end-diastolic pressure)” value [3, 8] was 8.3 ±0.6 mmHg. For the same molecule, the “LVSP (maximal systolic LV-pressure)” value [3, 8] was 106 ±3 mmHg, the “+dP/dt (contractilility)” value [3, 7] was 7012 ±419 mmHg/s and the “-dP/dt (relaxation)” value [3, 7] was 5619 ±155 mmHg/s. The “HF (heart frequence)” value [3, 7] was 173 ±17 bpm, the “LVEDP (LV end-diastolic pressure)” value [3, 7] was 10.6 ±1.5 mmHg and the “LVSP (maximal systolic LV-pressure)” value [3, 7] was 107 ±11 mmHg. For the same molecule, the “cardiomyopathic phenotype, in words” value [4] was “only stopped further disease-progression”, the “+dP/dt (contractilility)” value [5, 6] was 5697 ± 231 mmHg/s and the “-dP/dt (relaxation)” value [5, 6] was 4238 ± 117 mmHg/s. For the same molecule, the “HF (heart frequence)” value [5, 6] was 173 ± 3 bpm, the “LVEDP (LV end-diastolic pressure)” value [5, 6] was 10.9 ± 1.3 mmHg and the “LVSP (maximal systolic LV-pressure)” value [5, 6] was 108 ± 2 mmHg. For the same molecule, the “+dP/dt (contractilility)” value [5, 7] was 6018 ±308 mmHg/s, the “-dP/dt (relaxation)” value [5, 7] was 4646 ± 295 mmHg/s and the “HF (heart frequence)” value [5, 7] was 168 ± 6 bpm. The “LVEDP (LV end-diastolic pressure)” value [5, 7] was 9.7 ± 0.9 mmHg, the “LVSP (maximal systolic LV-pressure)” value [5, 7] was 104 ± 4 mmHg and the “effect on anti-β1EC2-titers, in words” value (anti-β1EC2-antibodies) was “no effect”.
